# Measurements: ChEMBL document CHEMBL3751830, “Design and discovery of new pyrimidine coupled nitrogen aromatic rings as chelating groups of JMJD3 inhibitors” (Bioorg Med Chem Lett, 2016)
# Active and inactive are the calls of the source. The rule behind the calls is not given here.
# Assays:
# [1] = target: T1, Lysine-specific demethylase 6B (Homo sapiens, UniProt O15054)
# Description: Inhibition of JMJD3 (unknown origin) using biotinylated H3K27me3 peptide as substrate after 1 hr by AlphaLISA assay
# [2] = Intrinsic clearance in human liver microsomes at 1 uM up to 30 mins by LC/MS/MS analysis; assay type: ADME; details: read-out: CLH
# CYP2C9 = CYP2C9 (Homo sapiens, UniProt P11712); assay: Inhibition of CYP2C9 in human liver microsomes at 10 uM after 20 mins; assay type: ADME
# [3] = Half life in human liver microsomes at 1 uM by LC/MS/MS analysis; assay type: ADME
# CYP2D6 = CYP2D6 (Homo sapiens, UniProt P10635); assay: Inhibition of CYP2D6 in human liver microsomes at 10 uM after 20 mins; assay type: ADME
# CYP1A2 = target: T2, CYP1A2 (Homo sapiens, UniProt P05177); assay: Inhibition of CYP1A2 in human liver microsomes at 10 uM after 20 mins; assay type: ADME
# T2 sequence (P05177 whole entry): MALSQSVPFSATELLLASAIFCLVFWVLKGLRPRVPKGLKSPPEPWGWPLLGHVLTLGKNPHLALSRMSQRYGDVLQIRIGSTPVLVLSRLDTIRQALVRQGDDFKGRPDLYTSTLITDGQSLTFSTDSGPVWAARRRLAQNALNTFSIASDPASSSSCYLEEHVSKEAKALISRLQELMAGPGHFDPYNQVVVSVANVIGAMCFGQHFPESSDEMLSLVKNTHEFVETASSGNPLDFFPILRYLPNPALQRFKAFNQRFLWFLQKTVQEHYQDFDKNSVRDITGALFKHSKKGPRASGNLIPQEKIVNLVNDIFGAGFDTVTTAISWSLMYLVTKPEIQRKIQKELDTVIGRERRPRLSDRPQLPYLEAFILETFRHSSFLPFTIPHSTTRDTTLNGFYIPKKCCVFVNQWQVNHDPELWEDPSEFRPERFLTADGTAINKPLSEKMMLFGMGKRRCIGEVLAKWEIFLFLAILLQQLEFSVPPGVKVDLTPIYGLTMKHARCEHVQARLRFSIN
# CYP2C19 = CYP2C19 (Homo sapiens, UniProt P33261); assay: Inhibition of CYP2C19 in human liver microsomes at 10 uM after 20 mins; assay type: ADME
# CYP3A4 = CYP3A4 (Homo sapiens, UniProt P08684); assay: in vitro; details: liver microsomes
# Description: Inhibition of CYP3A4 in human liver microsomes at 10 uM after 20 mins
# [4] = target: T1, Lysine-specific demethylase 6B; assay: Inhibition of JMJD3 (unknown origin) using biotinylated H3K27me3 peptide as substrate at 10 uM after 1 hr by AlphaLISA assay
# RAW264.7 [5] = assay: Inhibition of LPS-induced TNFalpha production in mouse RAW264.7 cells after 24 hrs by ELISA; assay type: functional, cell-based
# RAW264.7 [6] = assay: Inhibition of LPS-induced TNFalpha production in mouse RAW264.7 cells 0.82 uM after 24 hrs by ELISA; assay type: functional, cell-based
# Sequence of CYP2C19 (P33261 whole entry): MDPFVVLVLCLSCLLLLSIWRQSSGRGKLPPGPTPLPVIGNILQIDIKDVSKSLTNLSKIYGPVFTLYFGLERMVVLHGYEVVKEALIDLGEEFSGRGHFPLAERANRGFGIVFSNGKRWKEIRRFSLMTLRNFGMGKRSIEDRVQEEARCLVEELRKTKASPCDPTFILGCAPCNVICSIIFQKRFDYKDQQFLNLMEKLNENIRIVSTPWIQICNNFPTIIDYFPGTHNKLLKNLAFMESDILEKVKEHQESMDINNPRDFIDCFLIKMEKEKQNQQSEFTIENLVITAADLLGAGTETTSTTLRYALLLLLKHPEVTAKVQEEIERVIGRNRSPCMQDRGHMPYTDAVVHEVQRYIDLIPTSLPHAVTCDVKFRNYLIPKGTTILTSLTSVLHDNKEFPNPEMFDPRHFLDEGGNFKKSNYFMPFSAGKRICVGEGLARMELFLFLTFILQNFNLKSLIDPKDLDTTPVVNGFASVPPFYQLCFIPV
# Sequence of CYP3A4 (P08684 whole entry): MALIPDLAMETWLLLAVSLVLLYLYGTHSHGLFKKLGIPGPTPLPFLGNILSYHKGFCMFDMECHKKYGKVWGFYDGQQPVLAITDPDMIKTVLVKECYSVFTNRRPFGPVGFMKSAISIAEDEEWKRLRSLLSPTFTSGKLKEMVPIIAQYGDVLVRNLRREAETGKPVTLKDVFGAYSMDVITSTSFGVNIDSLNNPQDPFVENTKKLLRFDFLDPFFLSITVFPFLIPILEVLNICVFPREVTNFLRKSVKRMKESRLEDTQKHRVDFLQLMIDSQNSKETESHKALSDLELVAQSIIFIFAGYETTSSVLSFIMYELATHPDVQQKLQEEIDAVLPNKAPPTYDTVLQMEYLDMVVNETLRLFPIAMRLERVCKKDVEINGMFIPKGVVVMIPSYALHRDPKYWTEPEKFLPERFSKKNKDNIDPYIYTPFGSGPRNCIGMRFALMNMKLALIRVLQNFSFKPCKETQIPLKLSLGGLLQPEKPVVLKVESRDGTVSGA
# Sequence of CYP2C9 (P11712 whole entry): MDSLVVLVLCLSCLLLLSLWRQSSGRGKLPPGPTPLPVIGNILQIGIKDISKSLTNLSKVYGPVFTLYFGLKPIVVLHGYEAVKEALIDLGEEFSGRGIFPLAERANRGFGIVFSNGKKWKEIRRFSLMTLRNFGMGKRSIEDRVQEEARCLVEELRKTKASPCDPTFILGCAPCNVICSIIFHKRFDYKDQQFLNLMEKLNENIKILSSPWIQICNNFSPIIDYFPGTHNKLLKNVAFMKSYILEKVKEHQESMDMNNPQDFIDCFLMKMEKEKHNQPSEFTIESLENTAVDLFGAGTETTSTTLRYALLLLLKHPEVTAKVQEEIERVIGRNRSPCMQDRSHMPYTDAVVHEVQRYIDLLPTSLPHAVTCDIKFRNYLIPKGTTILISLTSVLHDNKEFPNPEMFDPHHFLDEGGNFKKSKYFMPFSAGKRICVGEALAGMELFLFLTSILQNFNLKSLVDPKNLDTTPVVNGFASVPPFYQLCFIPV
# Sequence of CYP2D6 (P10635 whole entry): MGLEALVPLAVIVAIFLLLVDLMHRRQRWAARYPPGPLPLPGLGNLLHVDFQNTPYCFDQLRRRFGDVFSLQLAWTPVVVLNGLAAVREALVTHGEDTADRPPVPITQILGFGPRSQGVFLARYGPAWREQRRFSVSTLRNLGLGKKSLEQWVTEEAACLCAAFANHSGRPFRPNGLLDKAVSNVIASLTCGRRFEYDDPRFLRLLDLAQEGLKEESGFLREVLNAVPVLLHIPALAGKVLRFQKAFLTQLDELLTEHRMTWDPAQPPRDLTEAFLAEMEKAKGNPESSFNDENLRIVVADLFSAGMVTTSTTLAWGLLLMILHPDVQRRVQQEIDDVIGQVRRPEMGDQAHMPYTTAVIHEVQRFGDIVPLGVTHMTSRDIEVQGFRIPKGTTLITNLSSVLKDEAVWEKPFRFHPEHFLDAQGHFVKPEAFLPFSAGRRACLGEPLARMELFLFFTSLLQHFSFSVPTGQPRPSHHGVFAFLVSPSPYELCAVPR
# T1 sequence (O15054 whole entry): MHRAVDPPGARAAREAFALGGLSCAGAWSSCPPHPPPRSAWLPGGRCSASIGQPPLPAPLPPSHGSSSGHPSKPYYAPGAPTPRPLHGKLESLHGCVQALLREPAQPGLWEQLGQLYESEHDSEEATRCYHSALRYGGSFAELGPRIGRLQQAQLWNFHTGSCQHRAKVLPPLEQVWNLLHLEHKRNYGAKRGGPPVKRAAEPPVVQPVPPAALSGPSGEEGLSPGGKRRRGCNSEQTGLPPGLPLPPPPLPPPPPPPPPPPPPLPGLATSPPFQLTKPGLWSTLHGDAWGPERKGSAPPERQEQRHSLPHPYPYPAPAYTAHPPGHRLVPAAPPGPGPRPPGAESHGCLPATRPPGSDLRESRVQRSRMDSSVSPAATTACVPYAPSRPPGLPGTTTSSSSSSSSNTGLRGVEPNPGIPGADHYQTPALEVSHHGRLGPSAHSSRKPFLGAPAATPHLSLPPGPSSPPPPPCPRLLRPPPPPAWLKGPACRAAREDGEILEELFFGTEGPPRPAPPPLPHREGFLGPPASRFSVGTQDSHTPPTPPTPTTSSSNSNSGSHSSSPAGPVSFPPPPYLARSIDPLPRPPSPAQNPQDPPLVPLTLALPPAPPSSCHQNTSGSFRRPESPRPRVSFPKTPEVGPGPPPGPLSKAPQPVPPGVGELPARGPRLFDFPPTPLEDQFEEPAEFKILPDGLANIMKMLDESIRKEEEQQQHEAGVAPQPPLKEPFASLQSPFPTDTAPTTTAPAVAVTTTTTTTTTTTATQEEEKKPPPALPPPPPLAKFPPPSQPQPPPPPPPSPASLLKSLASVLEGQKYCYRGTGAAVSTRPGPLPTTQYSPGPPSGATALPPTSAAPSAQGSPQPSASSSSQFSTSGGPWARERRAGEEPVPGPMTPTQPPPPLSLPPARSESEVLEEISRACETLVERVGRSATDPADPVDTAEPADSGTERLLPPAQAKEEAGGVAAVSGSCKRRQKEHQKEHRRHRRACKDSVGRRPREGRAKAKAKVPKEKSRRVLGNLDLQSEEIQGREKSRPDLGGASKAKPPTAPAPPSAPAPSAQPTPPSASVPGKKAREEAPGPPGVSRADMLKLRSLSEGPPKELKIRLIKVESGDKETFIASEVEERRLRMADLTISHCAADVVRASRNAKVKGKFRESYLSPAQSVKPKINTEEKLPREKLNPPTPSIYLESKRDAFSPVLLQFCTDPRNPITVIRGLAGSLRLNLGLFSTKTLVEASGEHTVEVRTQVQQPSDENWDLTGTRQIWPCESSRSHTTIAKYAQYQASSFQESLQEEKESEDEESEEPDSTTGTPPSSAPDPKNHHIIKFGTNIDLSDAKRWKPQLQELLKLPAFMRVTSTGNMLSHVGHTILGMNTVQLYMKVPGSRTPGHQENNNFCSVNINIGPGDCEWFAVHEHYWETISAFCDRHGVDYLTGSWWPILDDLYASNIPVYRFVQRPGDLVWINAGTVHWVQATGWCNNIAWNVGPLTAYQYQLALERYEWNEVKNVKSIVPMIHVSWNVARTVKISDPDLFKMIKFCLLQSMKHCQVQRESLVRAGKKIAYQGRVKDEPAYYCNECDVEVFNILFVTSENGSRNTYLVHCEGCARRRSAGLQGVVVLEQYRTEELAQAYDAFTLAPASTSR
structure (smiles),measurement,setting,value
O=C(O)CCNc1nc(N2CCc3ccccc3C2)cc(-n2cccn2)n1,IC50,[1],490 nM
O=C(O)CCNc1nc(N2CCN(c3ccccn3)CC2)cc(-n2nccn2)n1,IC50,[1],1300 nM
O=C(O)CCNc1nc(N2CCN(c3ccc(Cl)c(Cl)c3)CC2)cc(-n2cc3ccccc3n2)n1,IC50,[1],> 100000 nM
O=C(O)CCNc1nc(N2CCc3ccccc3CC2)cc(-n2nccn2)n1,microsomal CLint at 1 µM,[2],1 µL/min/mg
same,"inhibition at 20 min, 10 µM",CYP2C9,4%
same,half-life at 1 µM,[3],38.5 h
same,"inhibition at 20 min, 10 µM",CYP2D6,6%
same,IC50,[1],270 nM
same,"inhibition at 20 min, 10 µM",CYP1A2,4%
same,"inhibition at 20 min, 10 µM",CYP2C19,4%
same,"inhibition at 20 min, 10 µM",CYP3A4,7%
O=C(O)CCNc1cc(N2CCc3ccccc3CC2)nc(-c2ccccn2)n1,microsomal CLint at 1 µM,[2],3 µL/min/mg
same,"inhibition at 20 min, 10 µM",CYP2C9,5%
same,half-life at 1 µM,[3],8.25 h
same,"inhibition at 20 min, 10 µM",CYP2D6,20%
same,"inhibition at 20 min, 10 µM",CYP1A2,10%
same,"inhibition at 20 min, 10 µM",CYP2C19,16%
CN(Cc1ccco1)c1cc(-c2nccs2)nc(NCCC(=O)O)n1,inhibition,[4],43.9%
O=C(O)CCNc1nc(N2CCc3ccccc3CC2)cc(-n2cc3ccccc3n2)n1,microsomal CLint at 1 µM,[2],5 µL/min/mg
same,"inhibition at 20 min, 10 µM",CYP2C9,17%
same,half-life at 1 µM,[3],4.28 h
same,"inhibition at 20 min, 10 µM",CYP2D6,0%
same,IC50,[1],2200 nM
same,"inhibition at 20 min, 10 µM",CYP1A2,8%
same,"inhibition at 20 min, 10 µM",CYP2C19,11%
same,"inhibition at 20 min, 10 µM",CYP3A4,4%
O=C(O)CCNc1nc(N2CCN(c3ccccn3)CC2)cc(-n2cc3ccccc3n2)n1,inhibition,[4],54%
O=C(O)CCNc1nc(-c2nccs2)cc(N2CCc3ccccc3CC2)n1,microsomal CLint at 1 µM,[2],5 µL/min/mg
same,"inhibition at 20 min, 10 µM",CYP2C9,9%
same,half-life at 1 µM,[3],4.44 h
same,"inhibition at 20 min, 10 µM",CYP2D6,8%
same,IC50,[1],200 nM
same,"inhibition at 20 min, 10 µM",CYP1A2,9%
same,"inhibition at 20 min, 10 µM",CYP2C19,13%
same,"inhibition at 20 min, 10 µM",CYP3A4,12%
O=C(O)CCNc1nc(-c2nccs2)cc(N2CCC(c3ccccc3)CC2)n1,IC50,[1],1200 nM
O=C(O)CCNc1nc(N2CCN(c3ccc(Cl)c(Cl)c3)CC2)cc(-n2cccn2)n1,IC50,[1],740 nM
Cc1ccccc1CNc1cc(-c2nccs2)nc(NCCC(=O)O)n1,inhibition,[4],-0.6%
O=C(O)CCNc1nc(-c2nccs2)cc(N2CCc3ccccc3C2)n1,IC50,[1],990 nM
O=C(O)CCNc1nc(-c2nccs2)cc(N2CCN(c3ccc(Cl)c(Cl)c3)CC2)n1,IC50,[1],940 nM
O=C(O)CCNc1nc(N2CCc3ccccc3CC2)cc(-n2cccn2)n1,"inhibition at 20 min, 10 µM",CYP2C9,5%
same,half-life at 1 µM,[3],> 11.6 h
same,"inhibition at 20 min, 10 µM",CYP2D6,5%
same,IC50,[1],150 nM
same,"inhibition at 20 min, 10 µM",CYP1A2,5%
same,"inhibition at 20 min, 10 µM",CYP2C19,3%
same,"inhibition at 20 min, 10 µM",CYP3A4,3%
O=C(O)CCNc1nc(N2CCC(c3ccccc3)CC2)cc(-n2cccn2)n1,IC50,[1],750 nM
O=C(O)CCNc1nc(NC2CCN(Cc3ccccc3)CC2)cc(-c2nccs2)n1,inhibition,[4],10%
O=C(O)CCNc1nc(N2CCN(c3ccc(F)cc3)CC2)cc(-n2cccn2)n1,IC50,[1],550 nM
O=C(O)CCNc1nc(N2CCN(c3ccc(F)cc3)CC2)cc(-n2cc3ccccc3n2)n1,IC50,[1],5800 nM
CC(C)NC(=O)CN1CCN(c2cc(-c3nccs3)nc(NCCC(=O)O)n2)CC1,inhibition,[4],-5.1%
O=C(O)CCNc1nc(N2CCC(c3ccccc3)CC2)cc(-n2cc3ccccc3n2)n1,inhibition,[4],30%
O=C(O)CCNc1nc(-c2nccs2)cc(N2CCN(c3ccccn3)CC2)n1,IC50,[1],900 nM
O=C(O)CCNc1nc(N2CCC(c3ccccc3)CC2)cc(-n2nccn2)n1,IC50,[1],1200 nM
COc1cc(CNc2cc(-c3nccs3)nc(NCCC(=O)O)n2)cc(OC)c1,inhibition,[4],-8.7%
O=C(O)CCNc1nc(N2CCN(c3ccccn3)CC2)cc(-n2cccn2)n1,IC50,[1],1000 nM
COc1ccccc1N1CCN(c2cc(-c3nccs3)nc(NCCC(=O)O)n2)CC1,IC50,[1],2100 nM
CCOC(=O)CCNc1nc(N2CCc3ccccc3CC2)cc(-n2nccn2)n1,inhibition,RAW264.7 [5],Dose-dependent effect
same,inhibition,RAW264.7 [6],Active
COc1ccccc1N1CCN(c2cc(-n3cccn3)nc(NCCC(=O)O)n2)CC1,IC50,[1],> 20000 nM
O=C(O)CCNc1nc(N2CCc3ccccc3CC2)cc(-n2ccnn2)n1,"inhibition at 20 min, 10 µM",CYP2C9,1%
same,half-life at 1 µM,[3],> 11.6 h
same,"inhibition at 20 min, 10 µM",CYP2D6,6%
same,IC50,[1],210 nM
same,"inhibition at 20 min, 10 µM",CYP1A2,1%
same,"inhibition at 20 min, 10 µM",CYP2C19,8%
same,"inhibition at 20 min, 10 µM",CYP3A4,7%
O=C(O)CCNc1nc(N2CCN(c3ccc(Cl)c(Cl)c3)CC2)cc(-n2nccn2)n1,IC50,[1],1400 nM
O=C(O)CCNc1nc(N2CCc3ccccc3C2)cc(-n2cc3ccccc3n2)n1,IC50,[1],6100 nM
COc1ccccc1N1CCN(c2cc(-n3nccn3)nc(NCCC(=O)O)n2)CC1,IC50,[1],> 20000 nM
O=C(O)CCNc1nc(-c2nccs2)cc(N2CCN(c3ccc(F)cc3)CC2)n1,IC50,[1],600 nM
CCOC(=O)CCNc1nc(-c2nccs2)cc(N2CCc3ccccc3CC2)n1,inhibition,RAW264.7 [5],Active
same,inhibition,RAW264.7 [6],Active
O=C(O)CCNc1nc(NC2Cc3ccccc3C2)cc(-c2nccs2)n1,inhibition,[4],21.1%
O=C(O)CCNc1nc(N2CCc3ccccc3C2)cc(-n2ccnn2)n1,IC50,[1],1400 nM
O=C(O)CCNc1nc(N2CCN(c3ccc(F)cc3)CC2)cc(-n2ccnn2)n1,IC50,[1],10000 nM
Cc1ccccc1C1CCN(c2cc(-c3nccs3)nc(NCCC(=O)O)n2)CC1,inhibition,[4],87.5%
CCOC(=O)CCNc1cc(N2CCc3ccccc3CC2)nc(-c2ccccn2)n1,inhibition,RAW264.7 [5],Active
same,inhibition,RAW264.7 [6],Active
CC(C)(C)OC(=O)NC1CCN(c2cc(-c3nccs3)nc(NCCC(=O)O)n2)CC1,inhibition,[4],9.8%
CCOC(=O)CCNc1nc(N2CCc3ccccc3CC2)cc(-n2cccn2)n1,inhibition,RAW264.7 [5],Dose-dependent effect
same,inhibition,RAW264.7 [6],Active
O=C(O)CCNc1nc(NCc2cc(C(F)(F)F)cc(C(F)(F)F)c2)cc(-c2nccs2)n1,inhibition,[4],1%
O=C(O)CCNc1nc(N2CCN(c3ccc(F)cc3)CC2)cc(-n2nccn2)n1,IC50,[1],2600 nM
O=C(O)CCNc1nc(N2CCN(c3ccc(Cl)c(Cl)c3)CC2)cc(-n2ccnn2)n1,inhibition,[4],74%
O=C(O)CCNc1nc(N2CCc3ccccc3C2)cc(-n2nccn2)n1,IC50,[1],1500 nM
CC(=O)N1CCN(c2cc(-c3nccs3)nc(NCCC(=O)O)n2)CC1,inhibition,[4],32.9%
CCOC(=O)CCNc1nc(N2CCc3ccccc3CC2)cc(-n2ccnn2)n1,inhibition,RAW264.7 [5],Active
same,inhibition,RAW264.7 [6],Active
O=C(O)CCNc1nc(-c2nccs2)cc(N2CCC(N3CCCC3)CC2)n1,inhibition,[4],-8.4%
O=C(O)CCNc1nc(N2CCC(c3ccccc3)CC2)cc(-n2ccnn2)n1,IC50,[1],2100 nM
